Experimental data taken from PMC10712727, “Safety, Tolerability, and Pharmacokinetics of Senaparib, a Novel PARP1/2 Inhibitor, in Chinese Patients With Advanced Solid Tumors: A Phase I Trial” (The Oncologist, 2023).

System: patients with advanced solid tumors
Test: Safety: treatment-emergent and senaparib-related adverse events graded per NCI CTCAE v4.03
Format: in vivo
Description: This phase I, open-label, multicenter, dose-escalation, and dose-expansion study was conducted at three national clinical institutions in China. […] At baseline, all patients enrolled in the dose-escalation phase had to have at least one evaluable lesion, and those in the dose-expansion period had to have at least one measurable lesion, according to Response Evaluation Criteria in Solid Tumors version 1.1 (RECIST v1.1).[16] Entry to the dose-expansion cohort required the presence of a BRCA mutation, with the exception of patients with ovarian carcinoma, fallopian tube carcinoma, and primary peritoneal carcinoma. Full study eligibility criteria are provided in Supplementary Table S1.
Dose escalation was conducted using a modified Fibonacci 3 + 3 method (Supplementary Fig. S1).[17] Patients were administered oral senaparib from a planned starting dose of 2 mg once daily (QD), with preliminary dose escalation to 120 mg via nine dose groups, in order of their entry into the study. At a given dose level, each patient received a single dose of senaparib followed by a 7-day washout period. They then entered a continuous dosing period to confirm the safety and PK profile, in which they received senaparib QD from day 1 to day 21 of each 3-week cycle. Progression to the next higher dose required approval from the Data Safety Monitoring Committee (DSMC) upon review of the safety and PK data of the previous dose. A 50-mg twice-daily (BID) dosing group was added (planned enrollment, n = 6 patients) based on a DSMC review of the safety, PK, and efficacy analysis of the completed QD dose groups in the phase I clinical trial of senaparib dose escalation in Australia (NCT03507543), which commenced prior to the start of this trial.
The dose-expansion period included 3 populations: dose groups in which at least one patient achieved complete response (CR) or partial response (PR) per RECIST v1.1[16] and 1 dose group higher (evaluated for safety), as well as the dose group at the maximum tolerated dose (MTD)/recommended phase II dose (RP2D). Each of these groups included those patients in the respective dose-escalation group plus a planned additional 10 patients (approximately 20 patients in the MTD/RP2D group) with BRCA^mut+ solid tumors (ovarian, breast, or prostate cancer were preferred, and ovarian cancer could be BRCA wild type). Patients received senaparib monotherapy orally QD or BID (50-mg dose only) over each 3-week cycle until disease progression or unacceptable toxicity.
DLTs were predefined toxicities (Supplementary Table S2) recorded over the 7 days following the single-dose administration of senaparib and during the first treatment cycle (day 1-day 21) for each dose group in the dose-escalation period only. The MTD was defined as the maximum dose at which ≤1/6 patients experienced a DLT. Senaparib PK parameters were derived from blood samples collected from patients after the single administration, and at regular intervals during the first cycle of the dose-escalation and dose-expansion periods. Plasma concentrations of senaparib were determined using high-performance liquid chromatography-tandem mass spectrometry. Tumor response was assessed every 6 weeks per RECIST v1.1,[16] recording objective response rate (ORR), disease control rate (DCR), duration of response (DOR), and progression-free survival (PFS) by dose level for all patients and for those harboring BRCA^mut+ tumors.

For `O=C(c1cc(Cn2c(=O)[nH]c(=O)c3c(F)cccc32)ccc1F)N1CCN(c2ncccn2)CC1` [Senaparib], the “Pain in extremity, Gr≥3” value (TEAE, 120 mg QD n = 4) was 0 n (%), the “Platelet count decreased, All” value (TEAE, 120 mg QD n = 4) was 1 (25.0) n (%) and the “Platelet count decreased, Gr≥3” value (TEAE, 120 mg QD n = 4) was 0 n (%). For the same compound, the “Protein in urine, All” value (TEAE, 120 mg QD n = 4) was 1 (25.0) n (%), the “Protein in urine, Gr≥3” value (TEAE, 120 mg QD n = 4) was 0 n (%) and the “Vomiting, All” value (TEAE, 120 mg QD n = 4) was 1 (25.0) n (%). The “Vomiting, Gr≥3” value (TEAE, 120 mg QD n = 4) was 0 n (%), the “WBC decreased, All” value (TEAE, 120 mg QD n = 4) was 4 (100) n (%) and the “WBC decreased, Gr≥3” value (TEAE, 120 mg QD n = 4) was 0 n (%). For the same compound, the “ALT increased, All” value (TEAE, Total N = 57) was 10 (17.5) n (%), the “ALT increased, Gr≥3” value (TEAE, Total N = 57) was 1 (1.8) n (%) and the “AST increased, All” value (TEAE, Total N = 57) was 10 (17.5) n (%). For the same compound, the “AST increased, Gr≥3” value (TEAE, Total N = 57) was 1 (1.8) n (%), the “Abdominal distension, All” value (TEAE, Total N = 57) was 7 (12.3) n (%) and the “Abdominal distension, Gr≥3” value (TEAE, Total N = 57) was 0 n (%). The “Anemia (incl. hemoglobin decreased), Gr≥3” value (TEAE, Total N = 57) was 12 (21.1) n (%), the “Appetite decreased, All” value (TEAE, Total N = 57) was 14 (24.6) n (%) and the “Appetite decreased, Gr≥3” value (TEAE, Total N = 57) was 0 n (%). For the same compound, the “Asthenia, All” value (TEAE, Total N = 57) was 16 (28.1) n (%), the “Asthenia, Gr≥3” value (TEAE, Total N = 57) was 0 n (%) and the “Blood bilirubin increased, All” value (TEAE, Total N = 57) was 8 (14.0) n (%). For the same compound, the “Blood bilirubin increased, Gr≥3” value (TEAE, Total N = 57) was 1 (1.8) n (%), the “Blood creatinine increased, All” value (TEAE, Total N = 57) was 8 (14.0) n (%) and the “Blood creatinine increased, Gr≥3” value (TEAE, Total N = 57) was 0 n (%). For the same compound, the “Hypokalemia, All” value (TEAE, Total N = 57) was 6 (10.5) n (%), the “Hypokalemia, Gr≥3” value (TEAE, Total N = 57) was 0 n (%) and the “Hyponatremia, All” value (TEAE, Total N = 57) was 7 (12.3) n (%). The “Hyponatremia, Gr≥3” value (TEAE, Total N = 57) was 1 (1.8) n (%), the “Nausea, All” value (TEAE, Total N = 57) was 14 (24.6) n (%) and the “Nausea, Gr≥3” value (TEAE, Total N = 57) was 0 n (%). For the same compound, the “Neutrophil count decreased, All” value (TEAE, Total N = 57) was 12 (21.1) n (%), the “Neutrophil count decreased, Gr≥3” value (TEAE, Total N = 57) was 3 (5.3) n (%) and the “Pain in extremity, All” value (TEAE, Total N = 57) was 7 (12.3) n (%). For the same compound, the “Pain in extremity, Gr≥3” value (TEAE, Total N = 57) was 2 (3.5) n (%), the “Platelet count decreased, All” value (TEAE, Total N = 57) was 17 (29.8) n (%) and the “Platelet count decreased, Gr≥3” value (TEAE, Total N = 57) was 3 (5.3) n (%). The “Protein in urine, All” value (TEAE, Total N = 57) was 6 (10.5) n (%), the “Protein in urine, Gr≥3” value (TEAE, Total N = 57) was 0 n (%) and the “Vomiting, All” value (TEAE, Total N = 57) was 12 (21.1) n (%). The “Vomiting, Gr≥3” value (TEAE, Total N = 57) was 2 (3.5) n (%), the “WBC decreased, All” value (TEAE, Total N = 57) was 25 (43.9) n (%) and the “WBC decreased, Gr≥3” value (TEAE, Total N = 57) was 2 (3.5) n (%). The “ALT increased TRAE, All” value (Total N = 57) was 10 (17.5) n (%), the “ALT increased TRAE, Gr≥3” value (Total N = 57) was 1 (1.8) n (%) and the “AST increased TRAE, All” value (Total N = 57) was 10 (17.5) n (%). For the same compound, the “AST increased TRAE, Gr≥3” value (Total N = 57) was 1 (1.8) n (%), the “Anemia TRAE, Gr≥3” value (Total N = 57) was 12 (21.1) n (%) and the “Any TEAE, All” value (Total N = 57) was 57 (100) n (%). The “Any TEAE, Gr≥3” value (Total N = 57) was 27 (47.4) n (%), the “Any TEAE, events” value (Total N = 57) was 491 n ev and the “Any TEAE, patients” value (Total N = 57) was 57 (100) n (%). For the same compound, the “Any TRAE, All” value (Total N = 57) was 55 (96.5) n (%), the “Any TRAE, Gr≥3” value (Total N = 57) was 19 (33.3) n (%) and the “Appetite decreased TRAE, All” value (Total N = 57) was 13 (22.8) n (%). The “Appetite decreased TRAE, Gr≥3” value (Total N = 57) was 0 n (%), the “Asthenia TRAE, All” value (Total N = 57) was 15 (26.3) n (%) and the “Asthenia TRAE, Gr≥3” value (Total N = 57) was 0 n (%). For the same compound, the “Blood bilirubin increased TRAE, All” value (Total N = 57) was 8 (14.0) n (%), the “Blood bilirubin increased TRAE, Gr≥3” value (Total N = 57) was 1 (1.8) n (%) and the “Blood creatinine increased TRAE, All” value (Total N = 57) was 8 (14.0) n (%). For the same compound, the “Blood creatinine increased TRAE, Gr≥3” value (Total N = 57) was 0 n (%), the “Hypokalemia TRAE, All” value (Total N = 57) was 6 (10.5) n (%) and the “Hypokalemia TRAE, Gr≥3” value (Total N = 57) was 0 n (%). The “Nausea TRAE, All” value (Total N = 57) was 14 (24.6) n (%), the “Nausea TRAE, Gr≥3” value (Total N = 57) was 0 n (%) and the “Neutrophil count decreased TRAE, All” value (Total N = 57) was 12 (21.1) n (%). For the same compound, the “Neutrophil count decreased TRAE, Gr≥3” value (Total N = 57) was 3 (5.3) n (%), the “Platelet count decreased TRAE, All” value (Total N = 57) was 16 (28.1) n (%) and the “Platelet count decreased TRAE, Gr≥3” value (Total N = 57) was 3 (5.3) n (%). The “SAEs, events” value (Total N = 57) was 12 n ev, the “SAEs, patients” value (Total N = 57) was 12 (21.1) n (%) and the “TEAE Grade ≥3, events” value (Total N = 57) was 41 n ev. The “TEAE Grade ≥3, patients” value (Total N = 57) was 27 (47.4) n (%), the “TEAEs leading to death, events” value (Total N = 57) was 2 n ev and the “TEAEs leading to death, patients” value (Total N = 57) was 2 (3.5) n (%). For the same compound, the “TEAEs leading to dose discontinuation, events” value (Total N = 57) was 10 n ev, the “TEAEs leading to dose discontinuation, patients” value (Total N = 57) was 6 (10.5) n (%) and the “TEAEs leading to dose interruption, events” value (Total N = 57) was 23 n ev. The “TEAEs leading to dose interruption, patients” value (Total N = 57) was 15 (26.3) n (%), the “TEAEs leading to dose reduction, events” value (Total N = 57) was 10 n ev and the “TEAEs leading to dose reduction, patients” value (Total N = 57) was 8 (14.0) n (%). The “TRAEs Grade ≥3, events” value (Total N = 57) was 29 n ev, the “TRAEs Grade ≥3, patients” value (Total N = 57) was 19 (33.3) n (%) and the “TRAEs, events” value (Total N = 57) was 403 n ev. The “TRAEs, patients” value (Total N = 57) was 55 (96.5) n (%), the “Vomiting TRAE, All” value (Total N = 57) was 10 (17.5) n (%) and the “Vomiting TRAE, Gr≥3” value (Total N = 57) was 1 (1.8) n (%). The “WBC decreased TRAE, All” value (Total N = 57) was 25 (43.9) n (%), the “WBC decreased TRAE, Gr≥3” value (Total N = 57) was 2 (3.5) n (%) and the “All other grade ≥3 TEAEs, incidence of each” value (all patients N = 57) was at most 3.5%. The “Anemia causing study drug discontinuation, patients” value (all patients N = 57) was 5.3%, the “Grade ≥3 TEAE: anemia, incidence” value (all patients N = 57) was 21.1% and the “Grade ≥3 TEAE: neutrophil count decreased, incidence” value (all patients N = 57) was 5.3%. The “Grade ≥3 TEAE: platelet count decreased, incidence” value (all patients N = 57) was 5.3%, the “Grade ≥3 TEAEs, incidence” value (all patients N = 57) was 47.4% and the “Grade ≥3 TRAE: anemia, incidence” value (all patients N = 57) was 21.1%. The “Overall incidence of grade ≥3 TRAEs” value (all patients N = 57) was 33.3%, the “Patients with senaparib-related adverse events (TRAEs)” value (all patients N = 57) was 96.5% and the “Serious adverse events considered related to senaparib, patients” value (all patients N = 57) was 12.3%. The “Serious adverse events, patients” value (all patients N = 57) was 21.1%, the “TEAEs causing dose interruption, patients” value (all patients N = 57) was 26.3% and the “TEAEs causing dose reduction, patients” value (all patients N = 57) was 14.0%. For the same compound, the “TEAEs causing study drug discontinuation, patients” value (all patients N = 57) was 10.5%, the “TEAEs, number of events” value (all patients N = 57) was 491 events and the “Senaparib-related adverse event (TRAE): anemia, incidence” value (all patients N = 57, any grade) was 80.9%. The “TEAE: anemia, incidence” value (all patients N = 57, any grade) was 80.9%, the “TEAE: asthenia, incidence” value (all patients N = 57, any grade) was 28.1% and the “TEAE: platelet count decreased, incidence” value (all patients N = 57, any grade) was 29.8%. For the same compound, the “TEAE: white blood cell count (WBC) decreased, incidence” value (all patients N = 57, any grade) was 43.9%, the “TRAE: asthenia, incidence” value (all patients N = 57, any grade) was 26.3% and the “TRAE: platelet count decreased, incidence” value (all patients N = 57, any grade) was 28.1%. For the same compound, the “TRAE: white blood cell count decreased, incidence” value (all patients N = 57, any grade) was 43.9%, the “TEAEs resulting in death, patients” value (all patients N = 57, neither related to senaparib) was 3.5% and the “Patients with most frequent (hematologic) TRAEs of grade ≤3” value (in vivo) was over 90%. The “Pneumonitis and venous thromboembolic events” value (present study) was “neither of which were observed” and the “Secondary hematologic tumors (AML/MDS)” value (present study population) was “no cases”.
